Test results published in patent US10501461B2, “Tyrosine amide derivatives as Rho-kinase inhibitors” (CHIESI FARMACEUTICI S.P.A., priority 2017, dated 2019).

How the values were obtained:
Rho kinase 1 (ROCK-I) = Rho kinase 1 (ROCK-I) (Homo sapiens, UniProt Q13464); experiment: In vitro Rho kinase inhibitory activity assay (ADP-Glo), Rho kinase 1; type: biochemical; settings: 10 μM ATP, 25° C., expressed as range of activity
Procedure, shortened: (§1)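 ADP-Glo luminescence read-out. Enzyme (ROCK1 or ROCK2) + compound 30 min, then 10 μM ATP final, 1 h, 25 °C; 2.5 μM MBP peptide substrate, Tris pH7.5/MgCl2/BSA/DTT buffer, 1% DMSO. IC50 from variable-slope fit (0–100% fixed); Ki via Cheng-Prusoff.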

Rho kinase 2 (ROCK-II) = Rho kinase 2 (ROCK-II) (Homo sapiens, UniProt O75116); experiment: In vitro Rho kinase inhibitory activity assay (ADP-Glo), Rho kinase 2; type: biochemical; settings: 10 μM ATP, 25° C., expressed as range of activity
Procedure, shortened: as §1

Rho kinase 2 (ROCK-II), sequence (O75116 whole entry): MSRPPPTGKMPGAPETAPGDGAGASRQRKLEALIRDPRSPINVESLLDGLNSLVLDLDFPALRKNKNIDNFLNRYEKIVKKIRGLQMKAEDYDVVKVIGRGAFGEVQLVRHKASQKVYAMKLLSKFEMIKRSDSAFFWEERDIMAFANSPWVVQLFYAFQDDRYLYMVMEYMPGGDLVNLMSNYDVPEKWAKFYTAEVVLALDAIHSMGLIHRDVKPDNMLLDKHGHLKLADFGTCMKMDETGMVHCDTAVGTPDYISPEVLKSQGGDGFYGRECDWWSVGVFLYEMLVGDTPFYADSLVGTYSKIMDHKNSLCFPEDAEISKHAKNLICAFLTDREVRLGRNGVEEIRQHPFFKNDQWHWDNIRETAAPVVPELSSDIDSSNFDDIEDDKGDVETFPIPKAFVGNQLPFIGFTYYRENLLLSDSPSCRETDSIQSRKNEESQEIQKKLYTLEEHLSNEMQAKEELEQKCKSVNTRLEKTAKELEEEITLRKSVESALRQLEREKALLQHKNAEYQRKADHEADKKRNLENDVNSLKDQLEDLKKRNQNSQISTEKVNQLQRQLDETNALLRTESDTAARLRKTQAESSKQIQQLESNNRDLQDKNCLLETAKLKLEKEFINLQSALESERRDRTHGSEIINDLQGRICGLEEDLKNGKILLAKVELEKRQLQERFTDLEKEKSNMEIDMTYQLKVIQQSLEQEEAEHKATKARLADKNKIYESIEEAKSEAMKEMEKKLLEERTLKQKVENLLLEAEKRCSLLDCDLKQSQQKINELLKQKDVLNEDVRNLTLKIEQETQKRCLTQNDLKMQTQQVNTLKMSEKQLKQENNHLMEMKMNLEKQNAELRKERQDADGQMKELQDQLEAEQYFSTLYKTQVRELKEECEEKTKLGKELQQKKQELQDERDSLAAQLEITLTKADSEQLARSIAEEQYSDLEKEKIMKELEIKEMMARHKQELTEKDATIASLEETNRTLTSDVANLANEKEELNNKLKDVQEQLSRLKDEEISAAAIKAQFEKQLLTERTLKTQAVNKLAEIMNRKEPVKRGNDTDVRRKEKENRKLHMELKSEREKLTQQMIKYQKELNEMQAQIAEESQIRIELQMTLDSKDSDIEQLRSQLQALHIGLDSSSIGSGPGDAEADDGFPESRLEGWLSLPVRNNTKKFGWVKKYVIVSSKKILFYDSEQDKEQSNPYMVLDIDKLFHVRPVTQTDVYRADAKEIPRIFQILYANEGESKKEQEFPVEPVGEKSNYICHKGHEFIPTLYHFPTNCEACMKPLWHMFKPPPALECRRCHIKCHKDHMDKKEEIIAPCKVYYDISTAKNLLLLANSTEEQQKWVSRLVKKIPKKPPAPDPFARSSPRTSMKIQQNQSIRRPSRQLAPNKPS
Rho kinase 1 (ROCK-I), sequence (Q13464 whole entry): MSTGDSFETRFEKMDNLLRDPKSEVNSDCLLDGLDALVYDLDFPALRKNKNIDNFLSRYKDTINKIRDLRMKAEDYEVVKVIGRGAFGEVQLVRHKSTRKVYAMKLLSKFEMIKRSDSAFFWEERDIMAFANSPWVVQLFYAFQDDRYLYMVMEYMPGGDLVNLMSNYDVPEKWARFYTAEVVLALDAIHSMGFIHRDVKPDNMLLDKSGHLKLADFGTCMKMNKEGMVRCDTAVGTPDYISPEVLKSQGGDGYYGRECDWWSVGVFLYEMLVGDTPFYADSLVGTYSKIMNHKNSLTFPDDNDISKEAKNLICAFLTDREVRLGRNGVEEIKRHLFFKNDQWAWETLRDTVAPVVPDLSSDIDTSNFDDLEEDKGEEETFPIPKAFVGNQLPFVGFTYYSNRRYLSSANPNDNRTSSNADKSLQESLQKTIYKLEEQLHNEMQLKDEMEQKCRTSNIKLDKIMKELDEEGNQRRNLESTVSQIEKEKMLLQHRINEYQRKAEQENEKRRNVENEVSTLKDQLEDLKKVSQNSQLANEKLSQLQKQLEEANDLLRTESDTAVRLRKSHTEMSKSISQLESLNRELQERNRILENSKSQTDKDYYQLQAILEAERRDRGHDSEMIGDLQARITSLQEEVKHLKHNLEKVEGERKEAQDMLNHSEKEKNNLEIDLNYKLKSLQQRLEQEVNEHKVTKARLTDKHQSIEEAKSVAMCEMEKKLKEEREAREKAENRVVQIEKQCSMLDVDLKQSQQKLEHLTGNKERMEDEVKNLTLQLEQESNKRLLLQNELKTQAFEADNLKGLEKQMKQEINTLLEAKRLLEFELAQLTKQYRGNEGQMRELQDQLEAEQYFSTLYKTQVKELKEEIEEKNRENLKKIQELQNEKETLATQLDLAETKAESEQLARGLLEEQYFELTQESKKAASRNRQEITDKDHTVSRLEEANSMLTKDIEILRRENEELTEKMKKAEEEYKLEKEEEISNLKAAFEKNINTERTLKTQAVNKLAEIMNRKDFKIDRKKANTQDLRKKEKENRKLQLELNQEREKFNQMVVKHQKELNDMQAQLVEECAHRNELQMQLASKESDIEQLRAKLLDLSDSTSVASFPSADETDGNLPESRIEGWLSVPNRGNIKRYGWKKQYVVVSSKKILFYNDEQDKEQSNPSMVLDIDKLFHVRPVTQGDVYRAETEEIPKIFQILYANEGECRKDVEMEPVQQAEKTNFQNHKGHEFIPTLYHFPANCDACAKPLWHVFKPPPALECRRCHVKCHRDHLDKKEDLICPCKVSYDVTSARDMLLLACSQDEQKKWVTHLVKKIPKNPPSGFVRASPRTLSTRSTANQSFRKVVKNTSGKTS

| Structure (SMILES) | Ki (Rho kinase 1 (ROCK-I)) [nM] | Ki (Rho kinase 2 (ROCK-II)) [nM] |
| --- | --- | --- |
| Cc1c[nH]c2nccc(Oc3ccc(C[C@H](N)C(=O)N4CC[C@H](N(C)C)C4)cc3F)c12 [Example 49, (S)-2-amino-1-((S)-3-(dimethylamino)pyrrolidin-1-yl)-3-(3-fluoro-4-((3-methyl-1H-pyrrolo[2,3-b]pyridin-4-yl)oxy)phenyl)propan-1-one] | < 3 | < 3 |
| Cc1c[nH]c2nccc(Oc3ccc(C[C@H](N)C(=O)N[C@H]4CN5CCC4CC5)cc3F)c12 [Example 46, (S)-2-amino-3-(3-fluoro-4-((3-methyl-1H-pyrrolo[2,3-b]pyridin-4-yl)oxy)phenyl)-N-((R)-quinuclidin-3-yl)propanamide] | < 3 | < 3 |
| Cc1c[nH]c2nccc(Oc3ccc(C[C@H](N)C(=O)N4CCc5ncncc5C4)cc3F)c12 [Example 2, (S)-2-amino-1-(7,8-dihydropyrido[4,3-d]pyrimidin-6(5H)-yl)-3-(3-fluoro-4-((3-methyl-1H-pyrrolo[2,3-b]pyridin-4-yl)oxy)phenyl)propan-1-one] | < 3 | < 3 |
| Cc1cccc(CN2CCN(C(=O)C(N)Cc3ccc(Oc4ccnc5[nH]cc(C)c45)c(F)c3)CC2)c1 (centres unmarked) [Example 73, 2-amino-3-(3-fluoro-4-((3-methyl-1H-pyrrolo[2,3-b]pyridin-4-yl)oxy)phenyl)-1-(4-(3-methylbenzyl)piperazin-1-yl)propan-1-one] | < 3 | < 3 |
| Cc1c[nH]c2nccc(Oc3ccc(CC(N)C(=O)N4CCN(c5ccccn5)CC4)cc3F)c12 (centres unmarked) [Example 80, 2-amino-3-(3-fluoro-4-((3-methyl-1H-pyrrolo[2,3-b]pyridin-4-yl)oxy)phenyl)-1-(4-(pyridin-2-yl)piperazin-1-yl)propan-1-one] | < 3 | < 3 |
| Cc1c[nH]c2nccc(Oc3ccc(CC(N)C(=O)NCc4ccc(CO)cc4)cc3F)c12 (centres unmarked) [Example 62, 2-amino-3-(3-fluoro-4-((3-methyl-1H-pyrrolo[2,3-b]pyridin-4-yl)oxy)phenyl)-N-(4-(hydroxymethyl)benzyl)propanamide] | < 3 | < 3 |
| Cc1c[nH]c2nccc(Oc3ccc(C[C@@H](N)C(=O)NC4CCOCC4)cc3F)c12 [Example 55, (R)-2-amino-3-(3-fluoro-4-((3-methyl-1H-pyrrolo[2,3-b]pyridin-4-yl)oxy)phenyl)-N-(tetrahydro-2H-pyran-4-yl)propanamide] | 3 to 30 | 3 to 30 |
| Cc1c[nH]c2nccc(Oc3ccc(C[C@H](N)C(=O)NCCCN(C)C)cc3F)c12 [Example 15, (S)-2-amino-N-(3-(dimethylamino)propyl)-3-(3-fluoro-4-((3-methyl-1H-pyrrolo[2,3-b]pyridin-4-yl)oxy)phenyl)propanamide] | < 3 | < 3 |

The next lines start with the values.

| Ki (Rho kinase 1 (ROCK-I)) [nM] | Ki (Rho kinase 2 (ROCK-II)) [nM] | Structure (SMILES) |
| --- | --- | --- |
| < 3 | < 3 | N#Cc1c[nH]c2nccc(Oc3ccc(C[C@H](N)C(=O)NC4CCCCC4)cc3)c12 [Example 219, (S)-2-amino-3-(4-((3-cyano-1H-pyrrolo[2,3-b]pyridin-4-yl)oxy)phenyl)-N-cyclohexylpropanamide] |
| > 30 | 3 to 30 | N[C@H](Cc1ccc(Oc2ccnc3[nH]ccc23)cc1)C(=O)Nc1ccccc1 [Example 110, (R)-3-(4-((1H-pyrrolo[2,3-b]pyridin-4-yl)oxy)phenyl)-2-amino-N-phenylpropanamide] |
| < 3 | < 3 | N#Cc1c[nH]c2ncnc(Oc3ccc(C[C@H](N)C(=O)N4CCN(Cc5ccccc5)CC4)cc3F)c12 [Example 130, (S)-4-(4-(2-amino-3-(4-benzylpiperazin-1-yl)-3-oxopropyl)-2-fluorophenoxy)-7H-pyrrolo[2,3-d]pyrimidine-5-carbonitrile] |
| < 3 | < 3 | N[C@@H](Cc1ccc(Oc2ccnc3[nH]ccc23)c(F)c1)C(=O)NC1CCCCC1 [Example 146, (S)-3-(4-((1H-pyrrolo[2,3-b]pyridin-4-yl)oxy)-3-fluorophenyl)-2-amino-N-cyclohexylpropanamide] |
| < 3 | < 3 | N#Cc1ccc(-c2c[nH]c3nccc(Oc4ccc(C[C@H](N)C(=O)N5CCN(Cc6ccccc6)CC5)cc4)c23)s1 [Example 195, (S)-5-(4-(4-(2-amino-3-(4-benzylpiperazin-1-yl)-3-oxopropyl)phenoxy)-1H-pyrrolo[2,3-b]pyridin-3-yl)thiophene-2-carbonitrile] |
| < 3 | < 3 | N[C@@H](Cc1ccc(Oc2ccnc3[nH]cc(-c4ccc(O)cc4)c23)cc1)C(=O)NCCc1ccncc1 [Example 206, (S)-2-amino-3-(4-((3-(4-hydroxyphenyl)-1H-pyrrolo[2,3-b]pyridin-4-yl)oxy)phenyl)-N-(2-(pyridin-4-yl)ethyl)propanamide] |
| 3 to 30 | < 3 | Cc1c[nH]c2nccc(Oc3ccc(CC(N)C(=O)N4CCN(Cc5ccccc5)CC4)cc3F)c12 (single isomer, unassigned) [Example 132B, 2-amino-1-(4-benzylpiperazin-1-yl)-3-(3-fluoro-4-((3-methyl-1H-pyrrolo[2,3-b]pyridin-4-yl)oxy)phenyl)propan-1-one] |
| < 3 | < 3 | Cc1c[nH]c2ncnc(Oc3ccc(C[C@H](N)C(=O)NCCc4ccncc4)cc3F)c12 [Example 128, (S)-2-amino-3-(3-fluoro-4-((5-methyl-7H-pyrrolo[2,3-d]pyrimidin-4-yl)oxy)phenyl)-N-(2-(pyridin-4-yl)ethyl)propanamide] |
| < 3 | < 3 | Cc1c[nH]c2ncnc(Oc3ccc(C[C@H](N)C(=O)N4CCc5ccccc5C4)cc3F)c12 [Example 124, (S)-2-amino-1-(3,4-dihydroisoquinolin-2(1H)-yl)-3-(3-fluoro-4-((5-methyl-7H-pyrrolo[2,3-d]pyrimidin-4-yl)oxy)phenyl)propan-1-one] |
| 3 to 30 | 3 to 30 | Cc1c[nH]c2ncnc(Oc3ccc(C[C@H](N)C(=O)N4CCC(Oc5cccnc5)CC4)cc3F)c12 [Example 126, (S)-2-amino-3-(3-fluoro-4-((5-methyl-7H-pyrrolo[2,3-d]pyrimidin-4-yl)oxy)phenyl)-1-(4-(pyridin-3-yloxy)piperidin-1-yl)propan-1-one] |
| > 30 | > 30 | N[C@H](Cc1ccc(Oc2ccnc3[nH]ccc23)cc1)C(=O)Nc1nccs1 [Example 106, (R)-3-(4-((1H-pyrrolo[2,3-b]pyridin-4-yl)oxy)phenyl)-2-amino-N-(thiazol-2-yl)propanamide] |
